# Assay results from PubChem BioAssay AID2060606 (Molecular Pharmacology Branch, DTP, NCI, 2025).
# Values joined by “and” are separate entries in the source; they are usually repeats but may differ in a detail not shown here. Equal values may be shown once.
# Tested on: 922993-354-T-J3-PDC complex spheroids, viability, % test/control
# Experiment: Anticancer human tumor 922993-354-T-J3-PDC patient-derived endometrial carcinoma cell line growth inhibition [CLK]
# Conditions: for viability, T/C: stronger effect = lower value
# Method in brief: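 Multi-cell-type spheroids combined patient-derived tumor cells with HUVEC endothelial cells and human mesenchymal stem cells. Paired agents were dosed in half-log steps down from about clinical Cmax, or from 10 microM where Cmax was unknown.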
# [1] = curve of first compound, second compound 0.0316 µM
# [2] = curve of first compound, second compound 0.1 µM
# [3] = curve of first compound, second compound 0.316 µM
# [4] = curve of first compound, second compound 1 µM
# [5] = curve of first compound, second compound 3.16 µM
# [6] = curve of first compound, second compound 10 µM
# [7] = second compound 0.0316 µM, first compound 0.0316 µM
# [8] = second compound 0.0316 µM, first compound 0.1 µM
# [9] = second compound 0.0316 µM, first compound 0.316 µM
# [10] = second compound 0.0316 µM, first compound 1 µM
# [11] = second compound 0.0316 µM, first compound 3.16 µM
# [12] = second compound 0.0316 µM, first compound 10 µM
# [13] = second compound 0.1 µM, first compound 0.0316 µM
# [14] = second compound 0.1 µM, first compound 0.1 µM
# [15] = second compound 0.1 µM, first compound 0.316 µM
# [16] = second compound 0.1 µM, first compound 1 µM
# [17] = second compound 0.1 µM, first compound 3.16 µM
# [18] = second compound 0.1 µM, first compound 10 µM
# [19] = second compound 0.316 µM, first compound 0.0316 µM
# [20] = second compound 0.316 µM, first compound 0.1 µM
# [21] = second compound 0.316 µM, first compound 0.316 µM
# [22] = second compound 0.316 µM, first compound 1 µM
# [23] = second compound 0.316 µM, first compound 3.16 µM
# [24] = second compound 0.316 µM, first compound 10 µM
# [25] = second compound 1 µM, first compound 0.0316 µM
# [26] = second compound 1 µM, first compound 0.1 µM
# [27] = second compound 1 µM, first compound 0.316 µM
# [28] = second compound 1 µM, first compound 1 µM
# [29] = second compound 1 µM, first compound 3.16 µM
# [30] = second compound 1 µM, first compound 10 µM
# [31] = second compound 3.16 µM, first compound 0.0316 µM
# [32] = second compound 3.16 µM, first compound 0.1 µM
# [33] = second compound 3.16 µM, first compound 0.316 µM
# [34] = second compound 3.16 µM, first compound 1 µM
# [35] = second compound 3.16 µM, first compound 3.16 µM
# [36] = second compound 3.16 µM, first compound 10 µM
# [37] = second compound 10 µM, first compound 0.0316 µM
# [38] = second compound 10 µM, first compound 0.1 µM
# [39] = second compound 10 µM, first compound 0.316 µM
# [40] = second compound 10 µM, first compound 1 µM
# [41] = second compound 10 µM, first compound 3.16 µM
# [42] = second compound 10 µM, first compound 10 µM
# 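Further: spheroids exposed to the agents for 7 days before readout.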
smiles,measurement,setting,value
O=c1[nH]cc(F)c(=O)[nH]1 + CNC(=O)c1ccc(Nc2nc(OC3CCCC3)c3c(-c4ccc5nc(C)oc5c4)c[nH]c3n2)c(OC)c1,IC50,[1],7510 nM
same,IC50,[2],4990 nM
same,IC50,[3],4060 nM
same,IC50,[4],< 31.6 nM
same,IC50,[5],< 31.6 nM
same,IC50,[6],< 31.6 nM
same,"viability, T/C",[7],110%
same,"viability, T/C",[8],104%
same,"viability, T/C",[9],103%
same,"viability, T/C",[10],103%
same,"viability, T/C",[11],75.5%
same,"viability, T/C",[12],41.6%
same,"viability, T/C",[13],91.3%
same,"viability, T/C",[14],119%
same,"viability, T/C",[15],106%
same,"viability, T/C",[16],98.2%
same,"viability, T/C",[17],64.3%
same,"viability, T/C",[18],28.3%
same,"viability, T/C",[19],68%
same,"viability, T/C",[20],64%
same,"viability, T/C",[21],57.7%
same,"viability, T/C",[22],60.7%
same,"viability, T/C",[23],56.5%
same,"viability, T/C",[24],29.9%
same,"viability, T/C",[25],34%
same,"viability, T/C",[26],40.4%
same,"viability, T/C",[27],33.7%
same,"viability, T/C",[28],31.7%
same,"viability, T/C",[29],32.9%
same,"viability, T/C",[30],23.9%
same,"viability, T/C",[31],33.4%
same,"viability, T/C",[32],37.3%
same,"viability, T/C",[33],31.5%
same,"viability, T/C",[34],29.5%
same,"viability, T/C",[35],28.5%
same,"viability, T/C",[36],20.8%
same,"viability, T/C",[37],35.1%
same,"viability, T/C",[38],30.4%
same,"viability, T/C",[39],29%
same,"viability, T/C",[40],29%
same,"viability, T/C",[41],31.2%
same,"viability, T/C",[42],19.7%
COc1c(OCCCN2CCOCC2)ccc2c3n(c(=NC(=O)c4cnc(N)nc4)nc12)CCN3 + CNC(=O)c1ccc(Nc2nc(OC3CCCC3)c3c(-c4ccc5nc(C)oc5c4)c[nH]c3n2)c(OC)c1,IC50,[1],215 nM
same,IC50,[2],238 nM
same,IC50,[3],168 nM
same,IC50,[4],< 3.16 nM
same,IC50,[5],< 3.16 nM
same,IC50,[6],< 3.16 nM
same,"viability, T/C","second compound 0.0316 µM, first compound 0.00316 µM",92.2%
same,"viability, T/C","second compound 0.0316 µM, first compound 0.01 µM",88.6%
same,"viability, T/C",[7],83.5%
same,"viability, T/C",[8],72.2%
same,"viability, T/C",[9],38.9%
same,"viability, T/C",[10],14.8%
same,"viability, T/C","second compound 0.1 µM, first compound 0.00316 µM",123%
same,"viability, T/C","second compound 0.1 µM, first compound 0.01 µM",100%
same,"viability, T/C",[13],108%
same,"viability, T/C",[14],78.2%
same,"viability, T/C",[15],40%
same,"viability, T/C",[16],15%
same,"viability, T/C","second compound 0.316 µM, first compound 0.00316 µM",90.5%
same,"viability, T/C","second compound 0.316 µM, first compound 0.01 µM",87.9%
same,"viability, T/C",[19],74.4%
same,"viability, T/C",[20],63.5%
same,"viability, T/C",[21],35.6%
same,"viability, T/C",[22],10.8%
same,"viability, T/C","second compound 1 µM, first compound 0.00316 µM",42.2%
same,"viability, T/C","second compound 1 µM, first compound 0.01 µM",37%
same,"viability, T/C",[25],27.9%
same,"viability, T/C",[26],20.6%
same,"viability, T/C",[27],10.1%
same,"viability, T/C",[28],1.71%
same,"viability, T/C","second compound 3.16 µM, first compound 0.00316 µM",32.6%
same,"viability, T/C","second compound 3.16 µM, first compound 0.01 µM",28.9%
same,"viability, T/C",[31],22.5%
same,"viability, T/C",[32],11.8%
same,"viability, T/C",[33],7.41%
same,"viability, T/C",[34],1.47%
same,"viability, T/C","second compound 10 µM, first compound 0.00316 µM",31.1%
same,"viability, T/C","second compound 10 µM, first compound 0.01 µM",25.5%
same,"viability, T/C",[37],20%
same,"viability, T/C",[38],11.7%
same,"viability, T/C",[39],7.11%
same,"viability, T/C",[40],1.68%
CC(C)CC(NC(=O)C(Cc1ccccc1)NC(=O)c1cnccn1)B(O)O (stereo not given),"viability, T/C",compound 0.000949 µM,91.1% and 99.8%
same,"viability, T/C",compound 0.003 µM,85.1% and 72.4%
same,"viability, T/C",compound 0.00949 µM,30.7% and 48.4%
same,"viability, T/C",compound 0.03 µM,2.06% and 11.1%
same,"viability, T/C",compound 0.0949 µM,0.41% and 2.23%
same,"viability, T/C",compound 0.3 µM,0.17% and 0.49%
same,IC50,curve of compound,6.31 nM and 7.44 nM
CC(C)CC(NC(=O)C(Cc1ccccc1)NC(=O)c1cnccn1)B(O)O (stereo not given) + CNC(=O)c1ccc(Nc2nc(OC3CCCC3)c3c(-c4ccc5nc(C)oc5c4)c[nH]c3n2)c(OC)c1,IC50,[1],10.3 nM
same,IC50,[2],11.1 nM
same,IC50,[3],5.27 nM
same,IC50,[4],< 0.949 nM
same,IC50,[5],< 0.949 nM
same,IC50,[6],< 0.949 nM
same,"viability, T/C","second compound 0.0316 µM, first compound 0.000949 µM",106%
same,"viability, T/C","second compound 0.0316 µM, first compound 0.003 µM",91.4%
same,"viability, T/C","second compound 0.0316 µM, first compound 0.00949 µM",53%
same,"viability, T/C","second compound 0.0316 µM, first compound 0.03 µM",15%
same,"viability, T/C","second compound 0.0316 µM, first compound 0.0949 µM",1.67%
same,"viability, T/C","second compound 0.0316 µM, first compound 0.3 µM",2.25%
same,"viability, T/C","second compound 0.1 µM, first compound 0.000949 µM",79.8%
same,"viability, T/C","second compound 0.1 µM, first compound 0.003 µM",65.5%
same,"viability, T/C","second compound 0.1 µM, first compound 0.00949 µM",57.2%
same,"viability, T/C","second compound 0.1 µM, first compound 0.03 µM",10.3%
same,"viability, T/C","second compound 0.1 µM, first compound 0.0949 µM",2.17%
same,"viability, T/C","second compound 0.1 µM, first compound 0.3 µM",0.85%
same,"viability, T/C","second compound 0.316 µM, first compound 0.000949 µM",80.2%
same,"viability, T/C","second compound 0.316 µM, first compound 0.003 µM",64.4%
same,"viability, T/C","second compound 0.316 µM, first compound 0.00949 µM",35.2%
same,"viability, T/C","second compound 0.316 µM, first compound 0.03 µM",6.18%
same,"viability, T/C","second compound 0.316 µM, first compound 0.0949 µM",2.17%
same,"viability, T/C","second compound 0.316 µM, first compound 0.3 µM",0.48%
same,"viability, T/C","second compound 1 µM, first compound 0.000949 µM",36.8%
same,"viability, T/C","second compound 1 µM, first compound 0.003 µM",32.6%
same,"viability, T/C","second compound 1 µM, first compound 0.00949 µM",14%
same,"viability, T/C","second compound 1 µM, first compound 0.03 µM",3.9%
same,"viability, T/C","second compound 1 µM, first compound 0.0949 µM",0.77%
same,"viability, T/C","second compound 1 µM, first compound 0.3 µM",1.23%
same,"viability, T/C","second compound 3.16 µM, first compound 0.000949 µM",30.9%
same,"viability, T/C","second compound 3.16 µM, first compound 0.003 µM",19.4%
same,"viability, T/C","second compound 3.16 µM, first compound 0.00949 µM",2.49%
same,"viability, T/C","second compound 3.16 µM, first compound 0.03 µM",2.35%
same,"viability, T/C","second compound 3.16 µM, first compound 0.0949 µM",0.79%
same,"viability, T/C","second compound 3.16 µM, first compound 0.3 µM",0.78%
same,"viability, T/C","second compound 10 µM, first compound 0.000949 µM",25%
same,"viability, T/C","second compound 10 µM, first compound 0.003 µM",15%
same,"viability, T/C","second compound 10 µM, first compound 0.00949 µM",3.13%
same,"viability, T/C","second compound 10 µM, first compound 0.03 µM",3.29%
same,"viability, T/C","second compound 10 µM, first compound 0.0949 µM",0.81%
same,"viability, T/C","second compound 10 µM, first compound 0.3 µM",0.61%
O=c1[nH]cc(F)c(=O)[nH]1 + CN1CCN(c2cc(C(=O)Nc3cc4cc(-c5cnn(C)c5)ccc4cn3)ccn2)CC1,IC50,[1],7950 nM
same,IC50,[2],4390 nM
same,IC50,[3],< 31.6 nM
same,IC50,[4],< 31.6 nM
same,IC50,[5],< 31.6 nM
same,IC50,[6],< 31.6 nM
same,"viability, T/C",[7],104%
same,"viability, T/C",[8],99.5%
same,"viability, T/C",[9],95.2%
same,"viability, T/C",[10],114%
same,"viability, T/C",[11],65.6%
same,"viability, T/C",[12],46.1%
same,"viability, T/C",[13],102%
same,"viability, T/C",[14],87.2%
same,"viability, T/C",[15],94.1%
same,"viability, T/C",[16],80.5%
same,"viability, T/C",[17],54.2%
same,"viability, T/C",[18],38.9%
same,"viability, T/C",[19],34.3%
same,"viability, T/C",[20],34.3%
same,"viability, T/C",[21],33.3%
same,"viability, T/C",[22],31.3%
same,"viability, T/C",[23],38%
same,"viability, T/C",[24],24.6%
same,"viability, T/C",[25],0.11%
same,"viability, T/C",[26],0.38%
same,"viability, T/C",[27],0.11%
same,"viability, T/C",[28],0.78%
same,"viability, T/C",[29],1.96%
same,"viability, T/C",[30],1.27%
same,"viability, T/C",[31],0.09%
same,"viability, T/C",[32],0.09%
same,"viability, T/C",[33],1.19%
same,"viability, T/C",[34],0.76%
same,"viability, T/C",[35],0.73%
same,"viability, T/C",[36],2.29%
same,"viability, T/C",[37],0.09%
same,"viability, T/C",[38],0.11%
same,"viability, T/C",[39],0.93%
same,"viability, T/C",[40],0.13%
same,"viability, T/C",[41],2.73%
same,"viability, T/C",[42],2.68%
